Measurements: article PMC11374718, “Unlocking opioid neuropeptide dynamics with genetically encoded biosensors” (Nature Neuroscience, 2024)

Assays:
κLight1.3a [1] = test: in vivo BLA terminal ChRimson stimulation-evoked κLight1.3a activity in NAcSh after drug pretreatment; set-up: species or system mouse; conditions: aticaprant 3 mg per kg i.p. pretreatment; normalized to vehicle; 0–20 s; n = 4
κLight1.3a [2] = test: in vivo fiber photometry of κLight1.3a in NAcSh, agonist/antagonist drug injection; set-up: species or system mouse; conditions: κOR-Cre mice NAcSh; aticaprant 3 mg per kg + U50,488 10 mg per kg i.p.; 0–50 min; n = 6
Experimental: To detect dynorphin signaling at κOR-expressing neurons, we injected κOR-Cre mice with AAV5-CAG-DIO-κLight1.3a and implanted optical fibers in the NAcSh. A subset of mice was also injected with the red-shifted opsin ChRimson (AAV5-DIO-EF1a-ChRimson-tdTomato) in the BLA (Fig. 5a–c and Extended Data Fig. 5a); ChRimson-lacking mice served as a negative control to determine if optical stimulation produced artifactual dynamics in κLight1.3a fluorescence. We first examined the response of κLight1.3a to the agonist U50,488 in these mice (Fig. 5d).
Mice were pretreated with either vehicle (17:1:1:1 ratio of saline:dimethylsulfoxide:corn oil:ethanol) or aticaprant (Eli Lilly) at 3 mg per kg body weight […] i.p. for 30 min. […]
Custom MATLAB scripts were developed for analyzing fiber photometry data in the context of mouse behavior. […] After baseline correction, the photometry trace was z-scored relative to the mean and standard deviation of the session. The post-processed fiber photometry signal was analyzed in the context of animal behavior during Pavlovian conditioning and operant task performance. […] Peak, mean and minimum fluorescence was determined during predetermined time windows for the injection period (0–5 min), reward period (5–20 s), release period (0–20 s) or artifact period (0–20 s) subtracted from peak, mean or minimum fluorescence values in a baseline window (−5 to 0 s). […]

Cc1cc(C)cc([C@@H]2CCCN2Cc2ccc(Oc3ccc(C(N)=O)cc3F)cc2)c1 [aticaprant]
Normalized peak fluorescence of κLight1.3a, ChRimson stimulation-evoked trials (κLight1.3a [1]): 0.63 ± 0.14 | Normalized peak fluorescence of κLight1.3a during injection period (κLight1.3a [2]): 0.29 ± 0.07
